Results on one molecule are retold here after US10869863B2, “Multi-arm polymeric targeting anti-cancer conjugate” (priority 2016, dated 2020).

The test system of test [1] is orthotopic U87MG brain glioma. The format is in vivo, human. The settings on record: orthotopic U87MG brain glioma in nude mice; 40 mg·kg^−1 (as active agent) IV Q4D × 3; n=5.
Protocol: U87MG cells in logarithmic phase of growth were collected. […] The cells were charged into a 50 mL centrifuge tube after being pipetted with a pipettor to make them evenly dispersed, and the centrifuge tube was placed in an ice box. Cell suspension was aspirated with a 1 mL syringe, 1 μL of human brain glioma cell (U87MG cells) cultured in vitro was inoculated (1×10^5 cells/animal) using microinjection method via the guidance of a stereotactic apparatus for animals, the orthotopic U87MG brain glioma model was established, and animal status was observed periodically after inoculation.
The first administration was initiated on the day of grouping, the experiment was ended after 21 days, and the volumes of administration were all 10 mL·kg^−1. Group 1 was a solvent control group, and was given blank solvent by intravenous injection via tail once every 4 days for a total of 3 times (Q4D×3).
The first administration was initiated on the day of grouping, the experiment was ended after 21 days, and the volumes of administration were all 10 mL·kg^−1.
Groups with 10-hydroxycamptothecin as the active agent (Groups 14 to 18). The first administration was initiated on the day of grouping, the experiment was ended after 21 days, and the volumes of administration were all 10 mL·kg^−1.
Groups with rubitecan as the active agent (Groups 19 to 23). […]
The survival time of the animals were recorded.
For test [2], the system named is human breast cancer MDA-MB-231 transplanted tumor. The experiment in a line: Inhibitory effect in human breast cancer MDA-MB-231 xenograft model in nude mice. It counts as in vivo. The settings on record: MDA-MB-231 in female BALB/c nude mice; 40 mg·kg^−1 IV Q4D×3; 3 weeks; n=5. A general note: A xenograft is tissue or cells of one species grown in another, often human tumour cells in immunodeficient mice.
Protocol: MDA-MB-231 cells were cultured in DMEM, which contained 10% fetal bovine serum FBS (GIBCO, USA). The cells were placed in a 37° C. incubator containing 5% CO2 to cultivate.
A subcutaneous tumor xenograft model in nude mice was established by cell inoculation method: tumor cells in logarithmic phase of growth were collected, counted and then resuspended in 1×PBS, and the concentration of the cell suspension was adjusted to 1×10^7/mL. 1 mL syringes (4 gauge needle) were used to inoculate the tumor cells to the right back of the nude mice subcutaneously, 1×10^6/0.1 mL/mice. […]
(§1) The experimental period lasted for 3 weeks, and the body weights and the tumor sizes of the animals were measured twice a week during the experiment. The clinical symptoms were observed and recorded daily. On the last day of the experiment, the animals were sacrificed, the body weights were weighed, and the tumors were excised, weighed and recorded by photographing.
(§2) The calculation formula of the tumor volume (TV) was: TV=a×b^2/2, wherein a and b represented the measured length and width of the tumor, respectively. The calculation formula of the relative tumor volume (RTV) was: RTV=Vt/V0, wherein V0 was the tumor volume measured at the time of grouping and first administration, and Vt was the tumor volume at the time of a measurement.

Test [3] concerns human colon cancer HT-29 transplanted tumor. Briefly: Inhibitory effect on in vivo tumor growth, human colon cancer HT-29 transplanted tumor model in nude mice. The settings on record: HT-29 in female BALB/c nude mice; 40 mg·kg^−1 (as content of active agent) IV Q4D×3; experiment ended after 21 days; n=5.
Protocol: HT-29 cells in logarithmic phase of growth were collected. […] Cell suspension was aspirated with a 1 mL syringe, and injected subcutaneously to the anterior right armpit of nude mice. Each animal was inoculated with 100 μL (6×10^6 cells/animal), and the HT-29 transplated tumor model in nude mice was established. Animal status and the condition of tumor growth were observed regularly after inoculation, an electronic vernier caliper was used to measure the tumor diameters, the data was directly input to an Excel spreadsheet, and the tumor volumes were calculated. […] The tumor diameters were measured twice a week after the initiation of the experiment, the tumor volumes were calculated, and the body weights of the animals were weighed and recorded at the same time.
The calculation formula of the tumor volume (TV) was as follows: TV(mm^3)=l×w^2/2
(§3) The first administration was initiated on the day of grouping, the experiment was ended after 21 days, and the volumes of administration were all 10 mL·kg^−1. […]
On the last day of the experiment, the animals were euthanized (CO2) after the body weights were weighed and the tumor diameters were measured. The tumor tissues were excised, weighed and photographed (respectively photographed according to the following combinations), and the tumor weight inhibition rates were calculated. […]
The test system of test [4] is human pancreatic cancer MIA Paca-2 transplanted tumor. Briefly: Inhibitory effect in human pancreatic cancer MIA Paca-2 xenograft model in nude mice. It counts as in vivo. As to conditions: MIA Paca-2 in female BALB/c-nu/nu nude mice; 40 mg·kg^−1 IV Q4D×3; 3 weeks; n=5.
Protocol: The cells were placed in a 37° C. incubator containing 5% CO2 to cultivate.
A subcutaneous tumor xenograft model in nude mice was established by cell inoculation method: tumor cells in logarithmic phase of growth were collected, counted and then resuspended in 1×PBS, and the concentration of the cell suspension was adjusted to 3×10^7/mL. 1 mL syringes (4 gauge needle) were used to inoculate the tumor cells to the right back of the nude mice subcutaneously, 3×10^6/0.1 mL/mice. […]
as §1, §2
Test [5] relates to human gastric cancer NCI-N87 transplanted tumor. The experiment in a line: Inhibitory effect on in vivo tumor growth, human gastric cancer NCI-N87 cell strain transplanted tumor model in nude mice. As to conditions: 40 mg·kg^−1 (as active agent) IV Q4D × 3, n=5.
Protocol: NCI-N87 cells in logarithmic phase of growth were collected. […] Cell suspension was aspirated with a 1 mL syringe, and injected subcutaneously to the anterior right armpit of the nude mice. Each animal was inoculated with 100 μL (5×10^6 cells/animal), and the NCI-N87 transplanted tumor model in nude mice was established. Animal status and the condition of tumor growth were observed regularly after inoculation, an electronic vernier caliper was used to measure the tumor diameters, the data was directly input to an Excel spreadsheet, and the tumor volumes were calculated. […] The tumor diameters were measured twice a week after the initiation of the experiment, the tumor volumes were calculated, and the body weights of the animals were weighed and recorded at the same time.
The calculation formula of the tumor volume (TV) was as follows: TV(mm^3)=l×w^2/2 wherein l represented the long diameter of a tumor (mm), and w represented the short diameter of a tumor (mm).
as §3
After the experiment was ended, the animals were euthanized (CO2) after the body weights were weighed and the tumor diameters were measured. The tumor tissues were excised and weighed, and the tumor weight inhibition rates were calculated. […]

Consider `CCc1c2c(nc3ccc(OC(=O)N4CCC(N5CCCCC5)CC4)cc13)-c1cc3c(c(=O)n1C2)COC(=O)[C@]3(O)CC` [irinotecan], for which the Median survival time in test [1] was found to be 27 days. The “Relative tumor proliferation rate (% T/C)” value in test [2] is given as 44.8%^; in test [3], 69%; in test [4], 59.4%. Moreover, the “Average relative tumor proliferation rate (% T/C)” value in test [5] is on record as 63.2%.
